Our source for the EC50 values is patent publication US20260159528A1, “HETEROCYCLIC COMPOUNDS AS TRIGGERING RECEPTOR EXPRESSED ON MYELOID CELLS 2 AGONISTS AND METHODS OF USE” (Vigil Neuroscience, Inc., priority 2021, published 2026).

Each structure is given as a SMILES string.

The target of the first experiment is T1, human TREM2 (Homo sapiens, UniProt Q9NZC2).
T1 construct: expressed in transfected cells; host or cells: HEK293T
T1 sequence (Q9NZC2 19-230): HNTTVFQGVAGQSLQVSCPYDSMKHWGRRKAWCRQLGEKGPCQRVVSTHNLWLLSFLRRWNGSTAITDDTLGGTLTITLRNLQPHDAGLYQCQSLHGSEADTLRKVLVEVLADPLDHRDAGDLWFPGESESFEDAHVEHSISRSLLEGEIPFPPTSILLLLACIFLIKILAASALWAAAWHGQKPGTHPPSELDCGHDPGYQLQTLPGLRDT
T1 sequence (O43914 22-113 partner): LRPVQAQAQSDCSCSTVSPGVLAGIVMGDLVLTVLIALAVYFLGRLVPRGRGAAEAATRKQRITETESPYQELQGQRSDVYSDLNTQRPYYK
Description: TREM2 agonist potency by cellular Syk phosphorylation (AlphaLisa) in HEK293T-hTREM2 cells. The experiment is classed as cell-based. Particulars: Table D-2; HEK293 cells expressing human TREM2 and DAP12; pSyk AlphaLisa. The procedure:
In vitro Measurement of Triggering Receptor Expressed on Myeloid Cells 2 activity using cellular phosphorylation of Spleen Tyrosine Kinase (“Syk”) Assays
Measurement of TREM2 agonist potency was done using a HEK cell line expressing human TREM2 and DAP12 (HEK293T-hTREM2 cells). Binding of small molecules to, and activation of, TREM2 increases the phosphorylation of Syk. The resultant levels of Syk phosphorylation are measured using a commercial AlphaLisa reagent kit. To perform the assay, HEK-hTREM2 cells were plated at 14,000 cells per well in a 384 well plate, in 25 µL of complete growth media and incubated at 37° C., 5% CO2 for 20-24 hours.
Prior to the assay, test compounds were diluted in the 384 well plates in assay buffer and allowed to equilibrate for 30 minutes. Growth media was removed from cell plates by inversion on blotting paper, and 25 μL of test articles in assay buffer was added to cells. Cells were incubated for 45 minutes at room temperature. After 45 minutes, assay buffer was removed and 10 μL of lysis buffer was added. Plates were shaken for 20 minutes at 350 RPM at room temperature. After complete lysis, AlphaLisa reagents were added to the lysate, and fluorescence intensity was measured using a Perkin Elmer Envision plate reader. Intensities were used to generate a standard curve, and % activation was calculated. Curve fitting was performed using Prism v9 software, log(agonist) vs response—variable slope (four parameters), and EC50s were calculated from the curve fit.
The results presented in Table D have been generated with the in vitro assay described above. This assay may be used to test any of the compounds described herein to assess and characterize a compound's ability to act as an agonist of TREM2.
For `C[C@@H]1CN(c2nc(-c3ccc(C(F)(F)F)cc3F)c3sc(N(C)C)nc3n2)C[C@H](c2cnn(C3CC3)c2)O1` [Compound I-258, 5-[(2S,6R)-2-(1-cyclopropylpyrazol-4-yl)-6-methyl-morpholin-4-yl]-7-[2-fluoro-4-(trifluoromethyl)phenyl]-N,N-dimethyl-thiazolo[4,5-d]pyrimidin-2-amine], the EC50 is no more than 50 nM.

`C[C@@H]1CN(c2nc(-c3ccc(F)cc3F)c3c(ncn3C)n2)C[C@H](c2cnn(C3CC3)c2)O1` [Compound I-124, (2S,6R)-2-(1-cyclopropyl-1H-pyrazol-4-yl)-4-(6-(2,4-difluorophenyl)-7-methyl-7H-purin-2-yl)-6-methylmorpholine] gave an EC50 of 500 to 3000 nM.

For the compound `CC(C)n1cc2c(-c3ccc(F)cc3F)nc(N3C[C@@H](C)O[C@@H](c4cnn(C5CC5)c4)C3)nc2n1` [Compound I-129, (2S,6R)-2-(1-cyclopropyl-1H-pyrazol-4-yl)-4-(4-(2,4-difluorophenyl)-2-isopropyl-2H-pyrazolo[3,4-d]pyrimidin-6-yl)-6-methylmorpholine], the concentration giving a half-maximal response (EC50) lay in the range of 50 to 500 nM.

As for `CN(C)c1nc2nc([C@H]3CCO[C@@H](c4cnn(C5CC5)c4)C3)nc(C3CCCCC3)c2s1` (single isomer, unassigned) [Compound I-174], the concentration giving a half-maximal response (EC50) was in the range of 500 to 3000 nM.

`CN(C)c1nc2nc(N3CCC(F)(F)[C@@H](c4cnn(C5CC5)c4)C3)nc(-c3ccc(C(F)(F)F)cc3F)c2s1` (single isomer, unassigned) [Compound I-199]: the half-maximal effective concentration (EC50) was 50 to 500 nM.

In turn, `C[C@@H]1CN(c2nc(-c3c(F)cc(F)cc3F)c3sc(N(C)C)nc3n2)C[C@H](c2cnn(C3CC3)c2)O1` [Compound I-240, 5-[(2S,6R)-2-(1-cyclopropylpyrazol-4-yl)-6-methyl-morpholin-4-yl]-N,N-dimethyl-7-(2,4,6-trifluorophenyl)thiazolo[4,5-d]pyrimidin-2-amine] yielded a 50% effective concentration (EC50) of no more than 50 nM.

`CN(C)c1nc2nc([C@H]3CCO[C@@H](c4cnn(C5CC5)c4)C3)nc(-c3ccc(F)cc3F)c2s1` (single isomer, unassigned) [Compound I-89] returned an EC50 of 50 to 500 nM.

Regarding `C[C@@H]1CN(c2nc(-c3ccc(F)cc3F)c3sc(N(C)C)nc3n2)C[C@H](c2cnn(C3CC3)c2)O1` (single isomer, unassigned) [Compound I-84], the EC50 is no more than 50 nM.

Compound `CN(C)c1nc2nc([C@H]3CCO[C@@H](c4cnn(C5CC5)c4)C3)nc(-c3ccc(C(F)(F)F)cc3F)c2s1` (single isomer, unassigned) [Compound I-134] had a concentration giving a half-maximal response (EC50) of 50 to 500 nM.

Take `CN(C)c1nc2nc([C@H]3CCO[C@@H](c4cnn(C5CC5)c4)C3)nc(-c3ccc(Cl)cc3F)c2s1` (single isomer, unassigned) [Compound I-79]: the EC50 is no more than 50 nM.

For the compound `C[C@@H]1CN(c2nc(-c3ccc(Cl)cc3F)c3sc(N(C)C)nc3n2)C[C@H](c2cnn(C3CC3)c2)O1` (racemic) [Compound I-22, 7-(4-chloro-2-fluoro-phenyl)-N,N-dimethyl-5-[rac-(2S,6R)-2-(1-cyclopropylpyrazol-4-yl)-6-methyl-morpholin-4-yl]thiazolo[4,5-d]pyrimidin-2-amine], the EC50 was in the range of 50 to 500 nM.

Consider `CO[C@H]1CCN(c2nc3nc([C@H]4CCO[C@@H](c5cnn(C6CC6)c5)C4)nc(-c4ccc(C(F)(F)F)cc4F)c3s2)C1` [Compound I-165, 5-[(2R)-2-(1-cyclopropylpyrazol-4-yl)tetrahydropyran-4-yl]-7-[2-fluoro-4-(trifluoromethyl)phenyl]-2-[(3S)-3-methoxypyrrolidin-1-yl]thiazolo[4,5-d]pyrimidine], for which the EC50 is 50 to 500 nM.

Turning to `C[C@@H]1CN(c2nc(-c3ccc(Cl)cc3F)c3sc(N(C)CCO)nc3n2)C[C@H](c2cnn(C3CC3)c2)O1` (single isomer, unassigned) [Compound I-104], the 50% effective concentration (EC50) lay in the range of 50 to 500 nM.

`C/N=c1/sc2c(-c3ccc(Cl)cc3F)nc(N3C[C@@H](C)O[C@@H](c4cnn(C5CC5)c4)C3)nc2n1CCF` [Compound I-159, (E)-7-(4-chloro-2-fluoro-phenyl)-3-(2-fluoroethyl)-N-methyl-5-[(2S,6R)-2-(1-cyclopropylpyrazol-4-yl)-6-methyl-morpholin-4-yl]thiazolo[4,5-d]pyrimidin-2-imine] came in with a concentration for a half-maximal effect (EC50) of 500 to 3000 nM.

As for `CO[C@H]1CCN(c2nc3nc(N4C[C@@H](C)O[C@@H](c5cnn(C6CC6)c5)C4)nc(-c4ccc(F)cc4F)c3s2)C1` [Compound I-224, (2S,6R)-2-(1-cyclopropylpyrazol-4-yl)-4-[7-(2,4-difluorophenyl)-2-[(3S)-3-methoxypyrrolidin-1-yl]thiazolo[4,5-d]pyrimidin-5-yl]-6-methyl-morpholine], the EC50 is no more than 50 nM.

`Cn1c(N2CCC2)nc2nc([C@H]3CCO[C@@H](c4cnn(C5CC5)c4)C3)nc(-c3ccc(F)cc3F)c21` [Compound I-293, 8-(azetidin-1-yl)-2-((2R,4S)-2-(1-cyclopropyl-1H-pyrazol-4-yl)tetrahydro-2H-pyran-4-yl)-6-(2,4-difluorophenyl)-7-methyl-7H-purine] gave an EC50 of 50 to 500 nM.

`Cc1cc(C2CCCN(c3nc(-c4ccc(C(F)(F)F)cc4F)c4sc(N(C)C)nc4n3)C2)ccn1` (racemic) [Compound I-196, 7-(2-fluoro-4-(trifluoromethyl)phenyl)-N,N-dimethyl-5-(3-(2-methylpyridin-4-yl)piperidin-1-yl)thiazolo[4,5-d]pyrimidin-2-amine] showed an EC50 of 50 to 500 nM.

The compound `CN(C)c1nc2nc(N3CCC(F)(F)C(c4cnn(C5CC5)c4)C3)nc(-c3ccc(F)cc3F)c2s1` (centres unmarked) [Compound I-245, 5-(3-(1-cyclopropyl-1H-pyrazol-4-yl)-4,4-difluoropiperidin-1-yl)-7-(2,4-difluorophenyl)-N,N-dimethylthiazolo[4,5-d]pyrimidin-2-amine] displayed an EC50 of no more than 50 nM.

For `C[C@@H]1CN(c2nc(-c3ccc(C(F)(F)F)cc3F)c3c(n2)nc(N(C)C)n3C)C[C@H](c2cnn(C3CC3)c2)O1` [Compound I-283, 2-((2S,6R)-2-(1-cyclopropyl-1H-pyrazol-4-yl)-6-methylmorpholino)-6-(2-fluoro-4-(trifluoromethyl)phenyl)-N,N,7-trimethyl-7H-purin-8-amine], the EC50 was no more than 50 nM.

Turning to `CC(=O)N(C)c1nc2nc(N3C[C@@H](C)O[C@@H](c4cnn(C5CC5)c4)C3)nc(-c3ccc(Cl)cc3F)c2s1` (single isomer, unassigned) [Compound I-99], the concentration for a half-maximal effect (EC50) lay within 50 to 500 nM.

Compound `C[C@@H]1CN(c2nc(-c3ccc(F)cc3F)c3c(n2)nc(N(C)C)n3C)C[C@H](c2cnn(C3CC3)c2)O1` [Compound I-144] showed a concentration for a half-maximal effect (EC50) of no more than 50 nM.

In turn, `C[C@@H]1CN(c2nc(-c3ccc(F)cc3F)c3sc(N(C)C)nc3n2)C[C@H](c2cnn(C(F)F)c2)O1` [Compound I-235, 5-((2S,6R)-2-(1-(difluoromethyl)-1H-pyrazol-4-yl)-6-methylmorpholino)-7-(2,4-difluorophenyl)-N,N-dimethylthiazolo[4,5-d]pyrimidin-2-amine] displayed an EC50 of no more than 50 nM.

`Fc1cc(C(F)(F)F)ccc1-c1nc([C@H]2CCO[C@@H](c3cnn(C4CC4)c3)C2)nc2nc(C3CC3)sc12` (single isomer, unassigned) [Compound I-279] yielded an EC50 of no more than 50 nM.

The compound `COCn1cc([C@H]2CN(c3nc(-c4ccc(F)cc4F)c4sc(N(C)C)nc4n3)C[C@@H](C)O2)cn1` [Compound I-230, 7-(2,4-difluorophenyl)-5-[(2S,6R)-2-[1-(methoxymethyl)pyrazol-4-yl]-6-methyl-morpholin-4-yl]-N,N-dimethyl-thiazolo[4,5-d]pyrimidin-2-amine] gave an EC50 of no more than 50 nM.

Compound `C[C@@H]1CN(c2nc(-c3ccc(Cl)cc3F)c3sc(N(C)CCF)nc3n2)C[C@H](c2cnn(C3CC3)c2)O1` (single isomer, unassigned) [Compound I-114] gave an EC50 of 50 to 500 nM.

In turn, `CN(C)c1nc2nc([C@@H]3CCO[C@@H](c4cnn(C5CC5)c4)C3)nc(C3CCCCC3)c2s1` (single isomer, unassigned) [Compound I-205] gave a half-maximal effective concentration (EC50) of 500 to 3000 nM.

The experiment is the same for the next values; noted with them: Table D; HEK293 cells expressing human TREM2 and DAP12; pSyk AlphaLisa.
Compound `Cc1nc2nc([C@H]3CCO[C@@H](c4cnn(C5CC5)c4)C3)nc(-c3ccc(F)cc3F)c2s1` [Compound 4, 5-((2R,4S)-2-(1-cyclopropyl-1H-pyrazol-4-yl)tetrahydro-2H-pyran-4-yl)-7-(2,4-difluorophenyl)-2-methylthiazolo[4,5-d]pyrimidine] gave a 50% effective concentration (EC50) of 50 to 500 nM.

With `Cc1cn2c(-c3ccc(Cl)cc3F)cc(N3CCOC(c4cnn(C5CC5)c4)C3)nc2n1` (centres unmarked) [Compound I-26, 4-[5-(4-chloro-2-fluoro-phenyl)-2-methyl-imidazo[1,2-a]pyrimidin-7-yl]-2-(1-cyclopropylpyrazol-4-yl)morpholine], the 50% effective concentration (EC50) lay in the range of 3000 to 100000 nM.

Consider `Cc1nc2nc([C@H]3CCO[C@@H](c4cnn(C5CC5)c4)C3)nc(-c3ccc(F)cc3F)c2o1` [Compound 5, 5-((2R,4S)-2-(1-cyclopropyl-1H-pyrazol-4-yl)tetrahydro-2H-pyran-4-yl)-7-(2,4-difluorophenyl)-2-methyloxazolo[4,5-d]pyrimidine], for which the EC50 was 500 to 3000 nM.
